Here are results for 13 compounds from ChEMBL document CHEMBL5370590, “Densely Functionalized Macrocyclic Sesquiterpene Pyridine Alkaloids from Maytenus austroyunnanensis” (J Nat Prod, 2023).

The test system of data set [1] is BV-2. The data set is described as follows: Cytotoxicity against mouse BV-2 cells assessed as reduction in cell viability at 10 uM incubated for 24 hrs by MTT assay. In kind it is toxicity, cell-based. As to conditions: bv-2, 24 h.
The subject of data set [2] is BV-2. The data set is described as follows: Inhibition of LPS-induced NO production in mouse BV-2 cells at 10 uM pre-incubated for 2 hrs followed by LPS stimulation and measured after 24 hrs by Griess reagent based method. In kind it is functional, cell-based. As to conditions: time 26.0 hrs. In general terms: Nitrite, measured by Griess reagent, commonly stands in for NO production.

Data set [3] concerns BV-2. The data set is described as follows: Inhibition of LPS-induced NO production in mouse BV-2 cells assessed as NO production at 10 uM pre-incubated for 2 hrs followed by LPS stimulation and measured after 24 hrs by Griess reagent based method relative to control. The conditions noted are these: time 26 hrs. In kind it is functional. On the set-up: scale not given: the % may be the effect or the level left.

Data set [4] deals with BV-2. The data set is described as follows: Inhibition of LPS-induced NO production in mouse BV-2 cells assessed as NO production at 20 uM pre-incubated for 2 hrs followed by LPS stimulation and measured after 24 hrs by Griess reagent based method relative to control. In kind it is functional. More on the design: scale not given: the % may be the effect or the level left. As to conditions: time 26 hrs.

Calls of active or inactive are those of the source. The calls are words filed in the database; no cut-off is given here.

Consider `C/C=C(\C)C(=O)O[C@H]1[C@@H]2[C@@H](OC(C)=O)[C@@]34O[C@@]2(C)COC(=O)c2cccnc2CC[C@@](C)(OC(C)=O)C(=O)O[C@@H]([C@H](OC(C)=O)[C@H](OC(C)=O)[C@@]3(COC(C)=O)[C@@H]1OC(C)=O)[C@]4(C)O`, for which the Activity result with BV-2 [1] was “Non-Toxic”. Further, the inhibition entry in the data set on BV-2 [2] was “Active”.

In the case of `C/C=C(\C)C(=O)O[C@@H]1[C@H](OC(C)=O)[C@@]2(COC(C)=O)[C@H](OC(C)=O)C(=O)[C@@H]3[C@@H](OC(C)=O)[C@@]24O[C@@]3(C)COC(=O)c2cccnc2CC[C@@](C)(OC(C)=O)C(=O)O[C@@H]1[C@]4(C)O`, the Activity entry in the data set with BV-2 [1] was “Non-Toxic”. Moreover, the inhibition entry in the data set with BV-2 [2] is “Active”.

As for `C/C=C(\C)C(=O)O[C@@H]1[C@H](OC(C)=O)[C@@]2(COC(C)=O)[C@H](OC(C)=O)C(=O)[C@@H]3[C@@H](O)[C@@]24O[C@@]3(C)COC(=O)c2cccnc2CC[C@@](C)(OC(C)=O)C(=O)O[C@@H]1[C@]4(C)O`, the Activity entry with BV-2 [1] is “Non-Toxic”. The inhibition result with BV-2 [2] is “Active”.

`CC(=O)OC[C@]12[C@H](OC(C)=O)C(=O)[C@@H]3[C@@H](OC(C)=O)[C@@]14O[C@@]3(C)COC(=O)c1cccnc1CC[C@@](C)(OC(C)=O)C(=O)O[C@@H]([C@H](OC(=O)c1cccnc1)[C@@H]2OC(C)=O)[C@]4(C)O`: in the data set with BV-2 [1], the Activity result is “Non-Toxic”.

On to `C/C=C(\C)C(=O)O[C@@H]1[C@@H]2[C@@H](OC(C)=O)[C@@]34O[C@@]2(C)COC(=O)c2cnccc2CC[C@@](C)(OC(C)=O)C(=O)O[C@@H]([C@H](OC(=O)/C(C)=C/C)[C@H](OC(C)=O)[C@@]3(COC(C)=O)[C@@H]1OC(C)=O)[C@]4(C)O`, for which the Activity entry with BV-2 [1] is listed as “Non-Toxic”. In addition, the inhibition entry with BV-2 [2] was “Active”.

For the compound `CC(=O)OC[C@]12[C@H](OC(C)=O)[C@@H](OC(C)=O)[C@@H]3[C@@H](OC(C)=O)[C@@]14O[C@@]3(C)COC(=O)c1cccnc1[C@@H](C)[C@H](C)C(=O)O[C@@H]([C@H](OC(=O)c1ccc(=O)n(C)c1)[C@@H]2OC(C)=O)[C@]4(C)O`, in the data set with BV-2 [1], the Activity result is “Toxic”.

In the case of `CC(=O)O[C@H]1C[C@](C)(O)[C@]23OC(C)(C)[C@H](C[C@H](OC(=O)c4cccnc4)[C@]2(CO)[C@H]1OC(C)=O)[C@H]3OC(C)=O`, the Activity result in the data set with BV-2 [1] is on record as “Non-Toxic”.

As to `C/C=C(\C)C(=O)O[C@H]1C[C@@H]2[C@@H](OC(=O)c3ccccc3)[C@@]3(OC2(C)C)[C@@]1(COC(C)=O)[C@@H](OC(C)=O)[C@@H](OC(C)=O)C[C@]3(C)O`, the Activity entry is given as “Non-Toxic” in the data set with BV-2 [1] and 59.61% in the data set with BV-2 [3]. The inhibition entry in the data set with BV-2 [2] was “Active”.

Consider `C/C=C(\C)C(=O)O[C@@H]1[C@H](OC(C)=O)[C@@H]2[C@@H](OC(=O)/C(C)=C/C)[C@@]34O[C@@]2(C)COC(=O)c2cccnc2CC[C@H](C)C(=O)O[C@@H]([C@H](O)[C@H](O)[C@@]13COC(C)=O)[C@]4(C)O`, for which the Activity result in the data set with BV-2 [1] is reported as “Non-Toxic”. Besides, the inhibition entry in the data set with BV-2 [2] was “Active”.

As to `Oc1ccc(/C=C/c2cc(O)cc(O)c2)cc1` [RESVERATROL], in the data set with BV-2 [4], the Activity was 21.38%.

As to `CC(=O)OC[C@]12[C@H](OC(C)=O)C(=O)[C@@H]3[C@@H](OC(C)=O)[C@@]14O[C@@]3(C)COC(=O)c1cccnc1CC[C@@](C)(OC(C)=O)C(=O)O[C@@H]([C@H](OC(=O)c1ccccc1)[C@@H]2OC(C)=O)[C@]4(C)O`, the Activity entry with BV-2 [1] was “Non-Toxic”. In addition, the inhibition result with BV-2 [2] was “Active”.

As for `C/C=C(\C)C(=O)O[C@H]1[C@@H]2[C@@H](OC(C)=O)[C@@]34O[C@@]2(C)COC(=O)c2cnccc2CC[C@@](C)(OC(C)=O)C(=O)O[C@@H]([C@H](OC(C)=O)[C@H](OC(C)=O)[C@@]3(COC(C)=O)[C@@H]1OC(C)=O)[C@]4(C)O`, the Activity result in the data set with BV-2 [1] is listed as “Non-Toxic”. Moreover, the inhibition entry in the data set with BV-2 [2] was “Active”.

`CC(=O)OC[C@]12[C@H](OC(C)=O)[C@@H](OC(C)=O)[C@@H]3[C@@H](OC(C)=O)[C@@]14O[C@@]3(C)COC(=O)c1cccnc1[C@@H](C)[C@H](C)C(=O)O[C@@H]([C@H](OC(C)=O)[C@@H]2OC(C)=O)[C@]4(C)O`: in the data set on BV-2 [1], the Activity result is given as “Non-Toxic”. Also, the inhibition entry with BV-2 [2] is “Active”.
